From PubChem BioAssay (NCI)
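Grown in 96-well plates, cells were treated for 48 hours with each compound at five concentrations. Insufficient inhibition: endpoint recorded as highest concentration tested. TGI: concentration producing complete growth inhibition.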

Columns and labels:
Assay in all cases: NCI tumour cell line growth inhibition, 48 h
SW-620 colon = system: SW-620 colon
RXF 393 renal = system: RXF 393 renal
LOX IMVI melanoma = system: LOX IMVI melanoma
SK-MEL-2 melanoma = system: SK-MEL-2 melanoma
HCT-116 colon = system: HCT-116 colon
TK-10 renal = system: TK-10 renal
NCI-H460 lung = system: NCI-H460 lung
NCI-H522 lung = system: NCI-H522 lung
U251 CNS = system: U251 CNS
MDA-N = system: MDA-N
NCI/ADR-RES ovarian = system: NCI/ADR-RES ovarian

Structure (SMILES)	TGI (SW-620 colon)	TGI (RXF 393 renal)	TGI (LOX IMVI melanoma)	TGI (SK-MEL-2 melanoma)	TGI (HCT-116 colon)	TGI (TK-10 renal)	TGI (NCI-H460 lung)	TGI (NCI-H522 lung)	TGI (U251 CNS)	TGI (MDA-N)	TGI (NCI/ADR-RES ovarian)
CC(C)C1CC[C@H](C)C[C@@H]1OC(=O)C(C(=O)O[C@H]1C[C@@H](C)CCC1C(C)C)C(O)[C@@H]1OC(C)(C)O[C@H]1C1COC(C)(C)O1 (some centres undefined)	35.7 µM	28.9 µM	35.5 µM	38.2 µM	23.9 µM	37.1 µM	32.1 µM	3.95 µM	27.2 µM	35.4 µM	45.4 µM
COC(=O)c1ccccc1C1CN=NC12Cc1cccc(C)c1C2=O (centres undefined)	> 100 µM	> 100 µM	> 100 µM	> 100 µM	> 100 µM	> 100 µM	> 100 µM	> 100 µM	> 100 µM	> 100 µM	45.7 µM
Nc1ccc(Oc2ccc(C34CC5CC6C3CC3CC4C(C5)C6(c4ccc(Oc5ccc(N)c(O)c5)cc4)C3)cc2)cc1O	> 54.8 µM	27 µM	> 34.9 µM	39 µM	11.1 µM	19 µM	> 36.1 µM	5.73 µM	13.6 µM	14.8 µM	> 92.8 µM
c1ccc(C(CCN2CC3CCC(CC3)C2)c2ccccc2)cc1	> 100 µM	37.9 µM	30.6 µM	37.8 µM	63.8 µM	72.7 µM	28.9 µM	31.9 µM	35.1 µM	58.9 µM	58.3 µM
CC(NC(=O)C(N)CC(=O)O)NC(=O)N(C)C(C)(C)C (centres undefined)	> 100 µM	> 100 µM	> 100 µM	> 100 µM	> 100 µM	> 100 µM	> 100 µM	> 100 µM	> 100 µM	> 100 µM	> 100 µM
C#CC(O)/C=C/C(O)CCCC(O)CC#CC(O)C#CC(O)CCCC(O)/C=C/CCCC(=O)CCCCCCCCCCCCCCCC(O)C(O)C#CC(=O)O (centres undefined)		> 50 µM	20.8 µM	> 50 µM	> 50 µM	> 50 µM	> 50 µM	17.5 µM	> 50 µM	> 50 µM	> 50 µM
N#Cc1ccc(Oc2nc3ccc(C(F)(F)F)cc3nc2-c2ccccc2)cc1	35.7 µM	77.8 µM	91.1 µM	36.9 µM	28.6 µM	33.6 µM	31.4 µM	32.2 µM	30.9 µM	57.8 µM	37.1 µM
O=C(OCCC12CC3CC(CC(C3)C1)C2)c1ccc(NCc2cc(O)ccc2O)cc1	6.56 µM	4.9 µM	4.37 µM	2.83 µM	5.68 µM	4.65 µM	> 100 µM	0.35 µM	2.95 µM	3.38 µM	11.1 µM
NS(=O)(=O)c1nnc(NS(=O)(=O)c2ccccc2C(=O)O)s1	> 100 µM	> 100 µM	> 100 µM	> 100 µM	> 100 µM	> 100 µM	> 100 µM	> 100 µM	> 100 µM	> 100 µM	> 100 µM
COC(=O)c1cc(C(=CCC[C@H]2CC[C@@]3(C)C(CCC4C3CC[C@@]3(C)C4CC[C@@H]3C(C)CCCC(C)C)C2)c2cc(Cl)c(OC(=O)c3ccccc3)c(C(=O)OC)c2)cc(Cl)c1OC(=O)c1ccccc1 (some centres undefined)	> 10 µM	> 10 µM	> 10 µM	> 10 µM	> 10 µM	> 10 µM	> 10 µM	> 10 µM	> 10 µM	> 10 µM	> 10 µM
